According to article PMC2946083 (Bioorganic & medicinal chemistry letters, 2010):

Experiments:
A1 AR = biological target: T1, A1 AR (Homo sapiens, UniProt P30542); assay: Radioligand binding at human A1 AR
T1 sequence (P30542 1-326): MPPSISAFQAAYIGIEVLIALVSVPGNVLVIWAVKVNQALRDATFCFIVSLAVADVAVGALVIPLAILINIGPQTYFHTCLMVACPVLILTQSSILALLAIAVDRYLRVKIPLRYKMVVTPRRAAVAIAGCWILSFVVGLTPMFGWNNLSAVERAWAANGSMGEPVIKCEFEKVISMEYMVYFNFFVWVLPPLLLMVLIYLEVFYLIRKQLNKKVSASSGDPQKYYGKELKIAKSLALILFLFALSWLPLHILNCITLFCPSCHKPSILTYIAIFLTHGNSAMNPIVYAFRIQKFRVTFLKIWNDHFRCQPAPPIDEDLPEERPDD

A2A AR = A2A AR (Homo sapiens, UniProt P29274); assay: Radioligand binding at human A2A AR; conditions: A2A vs A1 and A3 ARs
A2A AR, sequence (P29274 whole entry): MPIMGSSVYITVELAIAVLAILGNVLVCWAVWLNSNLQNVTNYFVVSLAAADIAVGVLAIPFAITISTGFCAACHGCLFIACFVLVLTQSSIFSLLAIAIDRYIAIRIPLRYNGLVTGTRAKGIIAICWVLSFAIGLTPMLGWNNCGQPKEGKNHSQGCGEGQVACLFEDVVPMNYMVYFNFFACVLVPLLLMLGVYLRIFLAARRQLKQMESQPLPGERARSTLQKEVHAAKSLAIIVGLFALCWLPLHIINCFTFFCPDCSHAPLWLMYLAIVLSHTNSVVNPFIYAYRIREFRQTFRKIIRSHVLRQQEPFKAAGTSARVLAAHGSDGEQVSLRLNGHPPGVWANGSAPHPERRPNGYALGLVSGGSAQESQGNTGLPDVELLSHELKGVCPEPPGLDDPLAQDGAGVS

Ki (A1 AR): ~10 µM
Selectivity for the A2A AR in comparison to the A1 and A3 ARs (A2A AR): highly selective
SMILES: Nc1nc2c(cnn2CCCc2ccc(OCCF)cc2)c2nc(-c3ccco3)nn12 [Compound 5]
